# Laboratory results published in patent US20250255867A1 (Kadmon Corporation, LLC, priority 2022, published 2025).
# Values joined by “and” are separate entries in the source; they are usually repeats but may differ in a detail not shown here. Equal values may be shown once. Read-outs that look alike come from different tables or passages of the source.
compound,measurement,setting,value
"CC(C)NC(=O)COc1cccc(-c2nc(Nc3ccc4[nH]ncc4c3)c3ccccc3n2)c1 [Belumosudil, 2-{3-[4-(1H-indazol-5-ylamino)-2-quinazolinyl]phenoxy}-N-(propan-2-yl) acetamide]",Thrombocytosis: # Events,Cohort 3 400 mg QD,0
same,Thrombocytosis: Affected/At Risk,Cohort 3 400 mg QD,0/21
same,Thrombocytosis: Affected/At Risk (%),Cohort 3 400 mg QD,(0%)
same,Tinea pedis: # Events,Cohort 3 400 mg QD,0
same,Tinea pedis: Affected/At Risk,Cohort 3 400 mg QD,0/21
same,Tinea pedis: Affected/At Risk (%),Cohort 3 400 mg QD,(0%)
same,Tooth fracture: # Events,Cohort 3 400 mg QD,0
same,Tooth fracture: Affected/At Risk,Cohort 3 400 mg QD,0/21
same,Tooth fracture: Affected/At Risk (%),Cohort 3 400 mg QD,(0%)
same,Total Other Adverse Events: Affected/At Risk,Cohort 3 400 mg QD,19/21
same,Total Other Adverse Events: Affected/At Risk (%),Cohort 3 400 mg QD,(90.48%)
same,Transfusion reaction: # Events,Cohort 3 400 mg QD,0
same,Transfusion reaction: Affected/At Risk,Cohort 3 400 mg QD,0/21
same,Transfusion reaction: Affected/At Risk (%),Cohort 3 400 mg QD,(0%)
same,Tremor: # Events,Cohort 3 400 mg QD,4
same,Tremor: Affected/At Risk,Cohort 3 400 mg QD,3/21
same,Tremor: Affected/At Risk (%),Cohort 3 400 mg QD,(14.29%)
same,Type 2 diabetes mellitus: # Events,Cohort 3 400 mg QD,0
same,Type 2 diabetes mellitus: Affected/At Risk,Cohort 3 400 mg QD,0/21
same,Type 2 diabetes mellitus: Affected/At Risk (%),Cohort 3 400 mg QD,(0%)
same,Ulcerative keratitis: # Events,Cohort 3 400 mg QD,0
same,Ulcerative keratitis: Affected/At Risk,Cohort 3 400 mg QD,0/21
same,Ulcerative keratitis: Affected/At Risk (%),Cohort 3 400 mg QD,(0%)
same,Upper respiratory tract infection: # Events,Cohort 3 400 mg QD,9
same,Upper respiratory tract infection: Affected/At Risk,Cohort 3 400 mg QD,7/21
same,Upper respiratory tract infection: Affected/At Risk (%),Cohort 3 400 mg QD,(33.33%)
same,Upper-airway cough syndrome: # Events,Cohort 3 400 mg QD,1
same,Upper-airway cough syndrome: Affected/At Risk,Cohort 3 400 mg QD,1/21
same,Upper-airway cough syndrome: Affected/At Risk (%),Cohort 3 400 mg QD,(4.76%)
same,Urinary retention: # Events,Cohort 3 400 mg QD,0
same,Urinary retention: Affected/At Risk,Cohort 3 400 mg QD,0/21
same,Urinary retention: Affected/At Risk (%),Cohort 3 400 mg QD,(0%)
same,Urinary tract infection: # Events,Cohort 3 400 mg QD,0
same,Urinary tract infection: Affected/At Risk,Cohort 3 400 mg QD,0/21
same,Urinary tract infection: Affected/At Risk (%),Cohort 3 400 mg QD,(0%)
same,Urinary tract pain: # Events,Cohort 3 400 mg QD,1
same,Urinary tract pain: Affected/At Risk,Cohort 3 400 mg QD,1/21
same,Urinary tract pain: Affected/At Risk (%),Cohort 3 400 mg QD,(4.76%)
same,Urine output decreased: # Events,Cohort 3 400 mg QD,0
same,Urine output decreased: Affected/At Risk,Cohort 3 400 mg QD,0/21
same,Urine output decreased: Affected/At Risk (%),Cohort 3 400 mg QD,(0%)
same,Vascular access complication: # Events,Cohort 3 400 mg QD,0
same,Vascular access complication: Affected/At Risk,Cohort 3 400 mg QD,0/21
same,Vascular access complication: Affected/At Risk (%),Cohort 3 400 mg QD,(0%)
same,Vertigo: # Events,Cohort 3 400 mg QD,0
same,Vertigo: Affected/At Risk,Cohort 3 400 mg QD,0/21
same,Vertigo: Affected/At Risk (%),Cohort 3 400 mg QD,(0%)
same,Vision blurred: # Events,Cohort 3 400 mg QD,4
same,Vision blurred: Affected/At Risk,Cohort 3 400 mg QD,4/21
same,Vision blurred: Affected/At Risk (%),Cohort 3 400 mg QD,(19.05%)
same,Vomiting: # Events,Cohort 3 400 mg QD,4
same,Vomiting: Affected/At Risk,Cohort 3 400 mg QD,4/21
same,Vomiting: Affected/At Risk (%),Cohort 3 400 mg QD,(19.05%)
same,Weight decreased: # Events,Cohort 3 400 mg QD,4
same,Weight decreased: Affected/At Risk,Cohort 3 400 mg QD,2/21
same,Weight decreased: Affected/At Risk (%),Cohort 3 400 mg QD,(9.52%)
same,Weight increased: # Events,Cohort 3 400 mg QD,4
same,Weight increased: Affected/At Risk,Cohort 3 400 mg QD,1/21
same,Weight increased: Affected/At Risk (%),Cohort 3 400 mg QD,(4.76%)
same,White blood cell count decreased: # Events,Cohort 3 400 mg QD,2
same,White blood cell count decreased: Affected/At Risk,Cohort 3 400 mg QD,1/21
same,White blood cell count decreased: Affected/At Risk (%),Cohort 3 400 mg QD,(4.76%)
same,"ALT/AST increased all grade, No.",Cohort 3 400 mg QD n=21,2
same,"ALT/AST increased grade ≥3, No.",Cohort 3 400 mg QD n=21,0
same,"Anemia grade ≥3, No.",Cohort 3 400 mg QD n=21,0
same,"Any AE, No. of patients",Cohort 3 400 mg QD n=21,16
same,"Cough all grade, No.",Cohort 3 400 mg QD n=21,7
same,"Death, No.",Cohort 3 400 mg QD n=21,2
same,"Diarrhea all grade, No.",Cohort 3 400 mg QD n=21,7
same,"Drug-related AE, No.",Cohort 3 400 mg QD n=21,14
same,"Drug-related SAE, No.",Cohort 3 400 mg QD n=21,0
same,"Dyspnea all grade, No.",Cohort 3 400 mg QD n=21,7
same,"Dyspnea grade ≥3, No.",Cohort 3 400 mg QD n=21,4
same,"Fatigue all grade, No.",Cohort 3 400 mg QD n=21,9
same,"Grade ≥3 AE, No.",Cohort 3 400 mg QD n=21,14
same,"Headache all grade, No.",Cohort 3 400 mg QD n=21,6
same,"Hyperglycemia grade ≥3, No.",Cohort 3 400 mg QD n=21,2
same,"Hypertension all grade, No.",Cohort 3 400 mg QD n=21,4
same,"Hypoxia grade ≥3, No.",Cohort 3 400 mg QD n=21,2
same,"Lung infection or pneumonia grade ≥3, No.",Cohort 3 400 mg QD n=21,2
same,"Nausea all grade, No.",Cohort 3 400 mg QD n=21,8
same,"Peripheral edema all grade, No.",Cohort 3 400 mg QD n=21,6
same,"SAE, No.",Cohort 3 400 mg QD n=21,12
same,"URI all grade, No.",Cohort 3 400 mg QD n=21,7
same,Cytomegalovirus (CMV) infection or reactivation,Example 1,no reported CMV infection or reactivation
same,Patients who discontinued because of potentially drug-related AEs,Example 1,Three
same,Cytomegalovirus (CMV) infection or reactivation,"Example 1, listed as belumosudil",No cases
same,"AE cough, patients",Total N=54,22%
same,"AE diarrhea, patients",Total N=54,33%
same,"AE dyspnea, patients",Total N=54,30%
same,"AE fatigue, patients",Total N=54,33%
same,"AE headache, patients",Total N=54,24%
same,"AE hypertension, patients",Total N=54,20%
same,"AE increased liver function tests, patients",Total N=54,33%
same,"AE nausea, patients",Total N=54,33%
same,"AE peripheral edema, patients",Total N=54,24%
same,"AE upper respiratory infection, patients",Total N=54,46%
same,"ALT/AST increased all grade, No.",Total N=54,18
same,"ALT/AST increased grade ≥3, No.",Total N=54,4
same,"Anemia grade ≥3, No.",Total N=54,3
same,"Any AE, No. of patients",Total N=54,53
same,"Cough all grade, No.",Total N=54,12
same,"Death, No.",Total N=54,2
same,"Diarrhea all grade, No.",Total N=54,18
same,"Drug-related AE, No.",Total N=54,30
same,"Drug-related SAE, No.",Total N=54,0
same,"Dyspnea all grade, No.",Total N=54,16
same,"Dyspnea grade ≥3, No.",Total N=54,7
same,"Fatigue all grade, No.",Total N=54,18
same,"Grade ≥3 AE, No.",Total N=54,33
same,"Grade ≥3 AE, patients",Total N=54,Sixty-one
same,"Grade ≥3 cytopenias, patients",Total N=54,4%
same,"Grade ≥3 dyspnea, patients",Total N=54,13%
same,"Grade ≥3 hyperglycemia, patients",Total N=54,7%
same,"Grade ≥3 hypoxia, patients",Total N=54,7%
same,"Grade ≥3 increased liver function tests, patients",Total N=54,7%
same,"Headache all grade, No.",Total N=54,13
same,"Hyperglycemia grade ≥3, No.",Total N=54,4
same,"Hypertension all grade, No.",Total N=54,11
same,"Hypoxia grade ≥3, No.",Total N=54,4
same,"Lung infection or pneumonia grade ≥3, No.",Total N=54,5
same,"Nausea all grade, No.",Total N=54,18
same,"Peripheral edema all grade, No.",Total N=54,13
same,"SAE, No.",Total N=54,23
same,"Serious AE dyspnea, patients",Total N=54,7%
same,"Serious AE hypoxia, patients",Total N=54,4%
same,"Serious AE influenza-like illness, patients",Total N=54,4%
same,"Serious AE lung infection, patients",Total N=54,6%
same,"Serious AEs, patients",Total N=54,43%
same,"URI all grade, No.",Total N=54,25
same,Patients with dose interruptions,all,41%
same,Patients with dose reductions,all,9%
same,Patients who died during the study,"all in cohort 3, none attributed to belumosudil",Four
same,Eyelid margin crusting: Affected/At Risk,in vivo,1/17 and 0/16 and 0/21
same,Median relative dose intensity,overall,98%
same,Median duration of dose interruption,"range, 2-39 days",10 days
same,Median duration of dose reduction,"range, 21-859 days",97 days
